{
  "source": "patent US6987122B2",
  "about": "“2-(1H-indol-3-yl)-2-oxo-acetic acid amides with antitumor activity” (Novuspharma S.p.A., priority 2000, dated 2006)",
  "data": [
    {"smiles": "O=C(Nc1nncs1)C(=O)c1cn(Cc2ccc(F)cc2)c2ccccc12", "values": [
      {"measurement": "melting point", "value": "218 to 220", "unit": "°C"}
    ]},
    {"smiles": "O=C(Nc1nccs1)C(=O)c1cn(Cc2ccc(F)cc2)c2ccccc12", "values": [
      {"measurement": "melting point", "value": "233 to 237", "unit": "°C"}
    ]}
  ]
}
